# Data taken from ChEMBL document CHEMBL1201862, “PubChem BioAssay data set” (2004).
# Activity calls are given as the source filed them.
# Tests used:
# cells [1] = type: functional, cell-based
# cells [2] = type: functional, cell-based; remark: listed apart in the source
# [3] = biological target: T1, High affinity choline transporter 1 (Homo sapiens, UniProt Q9GZV3); assay: human choline transporter blockers, potency – cell-based, 5-point CRC, membrane potential dye, dose response (AID 504840); type: functional
# T1 sequence (Q9GZV3 whole entry): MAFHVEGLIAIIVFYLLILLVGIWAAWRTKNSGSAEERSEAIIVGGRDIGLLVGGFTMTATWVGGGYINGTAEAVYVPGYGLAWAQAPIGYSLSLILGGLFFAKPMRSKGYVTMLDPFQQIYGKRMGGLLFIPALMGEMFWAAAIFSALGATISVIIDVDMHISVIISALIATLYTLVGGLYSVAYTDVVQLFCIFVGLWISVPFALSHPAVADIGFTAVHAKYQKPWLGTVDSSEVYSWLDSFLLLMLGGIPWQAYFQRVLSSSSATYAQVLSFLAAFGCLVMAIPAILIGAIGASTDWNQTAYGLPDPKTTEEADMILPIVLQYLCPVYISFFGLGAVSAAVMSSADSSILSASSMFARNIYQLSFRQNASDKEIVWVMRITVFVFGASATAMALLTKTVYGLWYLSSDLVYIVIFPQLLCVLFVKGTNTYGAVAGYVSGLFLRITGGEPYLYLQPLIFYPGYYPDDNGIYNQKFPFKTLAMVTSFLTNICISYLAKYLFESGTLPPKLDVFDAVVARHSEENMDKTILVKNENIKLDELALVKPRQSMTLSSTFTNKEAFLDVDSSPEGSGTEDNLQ
# [4] = biological target: T2, Carboxy-terminal domain RNA polymerase II polypeptide A small phosphatase 1 (Homo sapiens, UniProt Q9GZU7); assay: CTDSP1 inhibitors, concentration-response, biochemical, absorbance readout, ultra-high-throughput screen actives (AID 540297); type: functional
# T2 sequence (Q9GZU7 whole entry): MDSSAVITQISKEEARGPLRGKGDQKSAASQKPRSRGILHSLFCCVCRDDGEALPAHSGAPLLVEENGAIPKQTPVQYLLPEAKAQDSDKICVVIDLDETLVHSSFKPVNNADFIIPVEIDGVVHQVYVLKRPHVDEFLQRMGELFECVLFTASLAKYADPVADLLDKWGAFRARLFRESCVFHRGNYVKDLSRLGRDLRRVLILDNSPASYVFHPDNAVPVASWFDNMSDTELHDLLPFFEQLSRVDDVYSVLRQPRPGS
# [5] = microbe, parasite or virus in culture; type: functional; settings: Mycobacterium tuberculosis
# [6] = biological target: T3, Replicative DNA helicase DnaB (Mycobacterium tuberculosis, UniProt P9WMR3); assay: DnaB intein splicing inhibitors, dose response, biochemical, cell-free fluorescence (AID 449749); type: functional
# T3 sequence (P9WMR3 whole entry): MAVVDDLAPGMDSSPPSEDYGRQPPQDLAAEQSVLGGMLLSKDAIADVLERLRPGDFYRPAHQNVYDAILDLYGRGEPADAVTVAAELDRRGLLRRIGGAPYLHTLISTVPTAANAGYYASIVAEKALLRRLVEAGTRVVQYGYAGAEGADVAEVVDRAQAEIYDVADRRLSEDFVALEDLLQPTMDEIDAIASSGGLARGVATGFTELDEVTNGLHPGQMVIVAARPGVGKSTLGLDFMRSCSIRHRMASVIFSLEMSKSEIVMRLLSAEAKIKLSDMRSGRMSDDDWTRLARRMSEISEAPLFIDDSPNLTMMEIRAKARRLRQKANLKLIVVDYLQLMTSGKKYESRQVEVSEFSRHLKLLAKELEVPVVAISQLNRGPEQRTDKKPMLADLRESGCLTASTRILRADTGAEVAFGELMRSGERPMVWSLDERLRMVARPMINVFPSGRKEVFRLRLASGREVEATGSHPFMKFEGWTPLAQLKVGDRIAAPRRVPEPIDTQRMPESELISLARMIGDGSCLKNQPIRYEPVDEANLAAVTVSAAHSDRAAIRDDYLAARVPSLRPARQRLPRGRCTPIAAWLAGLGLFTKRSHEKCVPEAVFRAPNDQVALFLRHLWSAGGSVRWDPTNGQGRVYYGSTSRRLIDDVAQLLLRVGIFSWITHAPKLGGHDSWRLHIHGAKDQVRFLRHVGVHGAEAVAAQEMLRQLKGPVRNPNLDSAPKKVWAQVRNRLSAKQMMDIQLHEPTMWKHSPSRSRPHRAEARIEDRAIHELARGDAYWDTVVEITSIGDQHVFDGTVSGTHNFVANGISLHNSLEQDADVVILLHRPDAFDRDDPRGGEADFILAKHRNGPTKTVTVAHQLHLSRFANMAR
# Protein RecA = biological target: T4, Protein RecA (Mycobacterium tuberculosis, UniProt P9WHJ3); assay: Fluorescence Cell-Free Homogeneous Dose Retest to Identify Inhibitors of RecA-Intein Splicing Activity. [Related pubchem assays (depositor defined):AID2097, AID2223, AID489010, AID492950]; type: functional
# T4 sequence (P9WHJ3 whole entry): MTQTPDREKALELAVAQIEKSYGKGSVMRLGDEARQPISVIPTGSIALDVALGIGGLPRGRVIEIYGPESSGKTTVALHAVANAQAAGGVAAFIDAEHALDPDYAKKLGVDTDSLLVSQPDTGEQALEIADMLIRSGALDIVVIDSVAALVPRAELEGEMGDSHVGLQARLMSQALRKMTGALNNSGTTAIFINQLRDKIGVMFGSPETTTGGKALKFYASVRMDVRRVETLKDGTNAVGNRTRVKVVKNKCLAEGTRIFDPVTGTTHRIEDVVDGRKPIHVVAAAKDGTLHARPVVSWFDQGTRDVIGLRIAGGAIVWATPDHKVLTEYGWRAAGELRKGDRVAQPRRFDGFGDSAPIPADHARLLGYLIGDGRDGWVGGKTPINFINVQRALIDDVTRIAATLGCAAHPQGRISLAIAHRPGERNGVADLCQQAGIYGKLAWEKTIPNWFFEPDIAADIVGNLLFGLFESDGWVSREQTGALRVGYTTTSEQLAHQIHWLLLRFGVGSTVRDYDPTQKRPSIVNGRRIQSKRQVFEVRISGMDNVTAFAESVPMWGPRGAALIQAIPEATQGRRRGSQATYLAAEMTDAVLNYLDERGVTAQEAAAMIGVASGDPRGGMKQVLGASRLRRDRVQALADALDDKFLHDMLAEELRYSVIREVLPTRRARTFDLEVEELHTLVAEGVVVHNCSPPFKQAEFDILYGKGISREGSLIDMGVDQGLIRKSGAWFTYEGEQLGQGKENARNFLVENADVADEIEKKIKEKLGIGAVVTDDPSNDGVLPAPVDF
# [7] = biological target: T5, Polyadenylate-binding protein 1 (Homo sapiens, UniProt P11940); assay: MLLE binding blockers, Cy5 peptide tracer – biochemical, fluorescence polarization, Cy5-PAM2 peptide, secondary, miRNA deadenylation inhibitor project, dose response (AID 602260); type: functional; settings: read-out: IC50_Mean
# T5 sequence (P11940 whole entry, the tested form may be a part): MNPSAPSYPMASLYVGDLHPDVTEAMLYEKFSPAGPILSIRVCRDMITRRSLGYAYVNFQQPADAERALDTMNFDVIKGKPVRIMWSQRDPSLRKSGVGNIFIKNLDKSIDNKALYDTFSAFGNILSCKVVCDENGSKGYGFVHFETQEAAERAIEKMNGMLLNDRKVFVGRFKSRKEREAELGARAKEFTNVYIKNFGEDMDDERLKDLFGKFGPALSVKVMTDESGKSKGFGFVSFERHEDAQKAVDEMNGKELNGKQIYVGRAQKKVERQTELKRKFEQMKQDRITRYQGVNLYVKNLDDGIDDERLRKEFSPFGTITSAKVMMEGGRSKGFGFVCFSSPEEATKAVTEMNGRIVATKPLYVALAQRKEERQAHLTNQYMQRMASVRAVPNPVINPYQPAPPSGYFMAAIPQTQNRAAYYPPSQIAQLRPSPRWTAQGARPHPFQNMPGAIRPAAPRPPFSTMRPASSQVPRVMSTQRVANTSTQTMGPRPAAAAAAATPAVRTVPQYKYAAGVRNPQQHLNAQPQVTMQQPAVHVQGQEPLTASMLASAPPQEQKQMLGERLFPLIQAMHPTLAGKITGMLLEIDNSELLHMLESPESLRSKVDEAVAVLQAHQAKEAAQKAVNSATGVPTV
# [8] = biological target: T5, Polyadenylate-binding protein 1; assay: MLLE domain peptide-binding blockers, IC50 – biochemical, fluorescence polarization, FITC-PAM2 peptide, dose response (AID 602259); type: functional; settings: read-out: IC50_Mean
# [9] = biological target: T6, Corticotropin-releasing factor receptor 2/Corticotropin-releasing factor-binding protein (Homo sapiens, UniProt P24387+Q13324); assay: activators of CRF receptor 2 with binding protein – uHTS hits, confirmation (AID 602473); type: functional; settings: read-out: EC50_Mean
# T6 sequence (Q13324 whole entry): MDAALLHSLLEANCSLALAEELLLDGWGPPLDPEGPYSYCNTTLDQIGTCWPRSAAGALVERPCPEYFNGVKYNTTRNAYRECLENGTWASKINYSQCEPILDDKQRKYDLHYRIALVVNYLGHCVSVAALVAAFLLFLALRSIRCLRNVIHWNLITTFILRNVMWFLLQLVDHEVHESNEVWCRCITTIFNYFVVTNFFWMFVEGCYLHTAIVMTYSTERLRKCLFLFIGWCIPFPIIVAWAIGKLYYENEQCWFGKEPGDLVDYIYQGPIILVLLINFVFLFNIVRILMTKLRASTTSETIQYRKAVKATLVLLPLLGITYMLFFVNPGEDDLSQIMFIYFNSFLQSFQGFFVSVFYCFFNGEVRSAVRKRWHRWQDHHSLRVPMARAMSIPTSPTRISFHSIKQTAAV
# T6 sequence (P24387 whole entry): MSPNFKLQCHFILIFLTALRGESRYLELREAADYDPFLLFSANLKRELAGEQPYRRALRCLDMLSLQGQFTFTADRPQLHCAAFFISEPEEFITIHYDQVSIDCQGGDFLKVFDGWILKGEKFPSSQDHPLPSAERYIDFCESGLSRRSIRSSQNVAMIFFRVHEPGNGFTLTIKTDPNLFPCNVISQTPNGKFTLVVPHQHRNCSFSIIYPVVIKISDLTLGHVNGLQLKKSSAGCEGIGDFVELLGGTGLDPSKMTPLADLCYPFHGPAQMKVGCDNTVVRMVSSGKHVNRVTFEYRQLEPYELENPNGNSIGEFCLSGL
# [10] = HIV-1 AD8 envelope cell-cell fusion blockers – cherry-pick, dose response (AID 652062); type: functional, cell-based;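 also: luciferase signal from cell-cell fusion driven by HIV-1 clade B AD8 Env; potency is for inhibitors of fusion seen as a drop in luminescence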
# Cytochrome P450 3A4 = Cytochrome P450 3A4 (Homo sapiens, UniProt P08684);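 also: CYP3A4 tested as one member of a cytochrome P450 panel screen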
# Chain of Cytochrome P450 3A4 (P08684 whole entry): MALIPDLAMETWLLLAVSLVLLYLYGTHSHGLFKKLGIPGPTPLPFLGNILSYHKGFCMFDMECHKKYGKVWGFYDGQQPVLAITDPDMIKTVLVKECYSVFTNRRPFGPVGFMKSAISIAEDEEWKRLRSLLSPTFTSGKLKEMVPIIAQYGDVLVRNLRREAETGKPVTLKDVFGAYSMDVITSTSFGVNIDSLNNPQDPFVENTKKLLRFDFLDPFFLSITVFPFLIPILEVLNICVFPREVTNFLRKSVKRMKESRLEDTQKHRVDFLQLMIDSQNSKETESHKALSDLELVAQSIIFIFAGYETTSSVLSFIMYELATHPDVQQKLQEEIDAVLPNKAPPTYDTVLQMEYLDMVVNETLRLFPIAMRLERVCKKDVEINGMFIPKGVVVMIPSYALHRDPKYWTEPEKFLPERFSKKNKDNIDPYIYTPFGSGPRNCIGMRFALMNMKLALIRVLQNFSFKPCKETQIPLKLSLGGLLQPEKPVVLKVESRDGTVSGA
smiles,measurement,setting,value
COc1cc(C(=O)N2CCN(C(=O)Cc3ccccc3)CC2)cc(OC)c1OC,EC50,cells [1],> 350 µM (not active)
same,EC50,cells [2],> 350 µM (not active)
CC1CCN(S(=O)(=O)c2ccc3c(c2)c(=O)c(C(=O)NC2CCCC2)cn3C)CC1,IC50,[3],12 µM (active)
COc1ccc(N2C(=O)[C@@H]3C(c4cccnc4)=NO[C@@H]3C2=O)cc1,EC50,cells [1],> 350 µM (not active)
same,EC50,cells [2],> 350 µM (not active)
Cn1nnnc1SCC1=C(C(=O)O)N2C(=O)C(NC(=O)C3CC3c3ccccc3)C2SC1 (stereo not given),IC50,[4],11.8 µM (active)
Cc1ccc(S(=O)(=O)N2CCCCC2)cc1C(=O)Nc1cccnc1,IC50,[4],9.14 µM (active)
CCCCC(O)(CCCC)C(=O)NN(C(=O)CCl)c1ccccc1,CC50,[5],12.1 µM (active)
same,AC50,[6],15 µM (active)
same,EC50,Protein RecA,2.45 µM (active)
CN1C(=O)SC(Nc2ccccc2C(=O)O)C1=O (stereo not given),IC50,[7],> 66 µM (inactive)
same,IC50,[8],> 66 µM (inactive)
CCOc1ccc(NC(=O)CN2C(=O)NC(C)(c3ccc(OC(F)F)cc3)C2=O)cc1 (stereo not given),EC50,[9],13.2 µM (active)
CCCCc1cc(-c2nnc(S)o2)c2ccccc2n1,IC50,[3],13.2 µM (active)
CCc1cnccc1CCC(=O)Nc1ccccc1C,EC50,cells [1],> 350 µM (not active)
same,EC50,cells [2],52 µM (active)
CCc1cc2c(NCc3ccco3)ncnc2s1,IC50,[3],10 µM (active)
same,AC50,[10],32.3 µM (active)
same,AC50,Cytochrome P450 3A4,25.1 µM (inconclusive)
COc1cccc2sc3ccc(C#CC4(N)CCCCC4)cc3c(=O)c12,CC50,[5],20.1 µM (active)
